“Also recorded” adds a separate entry of the source.
What was measured:
[1] = tested on: Arabidopsis thaliana plants; assay: SOA1 phenotypic analysis of herbicide-treated Arabidopsis plants; format: in vivo; conditions: for leafCurling (Dev.) / leafTwisting (Dev.) / leafWidth (Dev.) / matureLeafAnthocyanins (Dev.) / matureLeafChlorosis (Dev.) / matureLeafNecrosis (Dev.) / newLeafAnthocyanins (Dev.) / newLeafChlorosis (Dev.) / newLeafNecrosis (Dev.) / pointedLeaves (Dev.): numeric value standardized to mock treated tissues; for tMic (Dev.): score for time to full symptoms at minimum inhibitory concentration; for Symptom Class: three-week-old Arabidopsis treated with herbicide, phenotypes shown in FIG. 12; for characteristic symptoms (phenotypic analysis): herbicide-treated Arabidopsis
Arabidopsis thaliana [2] = assay: MOA1 gene expression profiling (22,000 gene array) of sprayed Arabidopsis; conditions: for extent of gene expression perturbation compared to the other treatments: 1 hr; for No. of Lethal Genes Altered: regulated genes (1 hr) found in list of genes essential for plant growth and development
[3] = tested on: Saccharomyces cerevisiae wild type strain BY4743; assay: AF1 metabolite analysis (GC-MS, LC-MS) of yeast treated with antifungal drugs; format: cell-based
Arabidopsis thaliana [4] = assay: MOA1 biochemical (metabolite) profiling by LC-MS and GC-MS of sprayed Arabidopsis; conditions: for Number of Metabolites Changed: (unknown #) / Number of Metabolites Changed: Total #: 1 hr; for commonly regulated (putative stress-related) metabolites: MOA1, 20 minutes and 1 hour after spraying
Magnaporthe grisea = format: cell-based
Arabidopsis plants = conditions: nitrate addition to N-starved Arabidopsis; cited from earlier work

SMILES: O=C(O)COc1ccc(Cl)cc1Cl [2,4-D]
- leafCurling (Dev.) [1]: 1
- leafTwisting (Dev.) [1]: 2
- leafWidth (Dev.) [1]: −1
- matureLeafAnthocyanins (Dev.) [1]: 1
- matureLeafChlorosis (Dev.) [1]: 2
- matureLeafNecrosis (Dev.) [1]: 0
- newLeafAnthocyanins (Dev.) [1]: 0
- newLeafChlorosis (Dev.) [1]: 1
- newLeafNecrosis (Dev.) [1]: 0
- pointedLeaves (Dev.) [1]: 0
- tMic (Dev.) [1]: 2
- Symptom Class [1]: 5

SMILES: O=C(O)c1cc(Oc2ccc(C(F)(F)F)cc2Cl)ccc1[N+](=O)[O-] [Acifluorfen]
- characteristic symptoms (phenotypic analysis) [1]: Necrotic leaf flecks
- Symptom Class [1]: 6

SMILES: COC(=O)NS(=O)(=O)c1ccc(N)cc1 [Asulam]
- extent of gene expression perturbation compared to the other treatments (Arabidopsis thaliana [2]): fewest gene expression perturbations
- No. of Lethal Genes Altered (Arabidopsis thaliana [2]): 5

SMILES: CCNc1nc(Cl)nc(NC(C)C)n1 [Atrazine]
- characteristic symptoms (phenotypic analysis) [1]: rapid and widespread leaf necrosis
- Symptom Class [1]: 7

SMILES: O=C(O)Cn1c(=O)sc2cccc(Cl)c21 [Benazolin]
- Symptom Class [1]: 5

SMILES: CC(C)N1C(=O)c2ccccc2NS1(=O)=O [Bentazon]
- characteristic symptoms (phenotypic analysis) [1]: rapid and widespread leaf necrosis
- Symptom Class [1]: 7

SMILES: COC(=O)c1cc(Oc2ccc(Cl)cc2Cl)ccc1[N+](=O)[O-] [Bifenox]
- characteristic symptoms (phenotypic analysis) [1]: Necrotic leaf flecks
- Symptom Class [1]: 6

SMILES: COc1nc(C)nc(NC(=O)NS(=O)(=O)c2ccccc2Cl)n1 [Chlorsulfuron]
- characteristic symptoms (phenotypic analysis) [1]: anthocyanin accumulation in the older leaves accompanied by chlorosis of the newly emerging leaves
- Symptom Class [1]: 4
- No. of Lethal Genes Altered (Arabidopsis thaliana [2]): 8

SMILES: COc1c(Cl)ccc(Cl)c1C(=O)O [Dicamba]
- Symptom Class [1]: 5

SMILES: c1cc[n+]2c(c1)-c1cccc[n+]1CC2 [Diquat]
- characteristic symptoms (phenotypic analysis) [1]: rapid and widespread leaf necrosis
- leafCurling (Dev.) [1]: 2
- leafTwisting (Dev.) [1]: 0
- leafWidth (Dev.) [1]: −2
- matureLeafAnthocyanins (Dev.) [1]: 0
- matureLeafChlorosis (Dev.) [1]: 1
- matureLeafNecrosis (Dev.) [1]: 4
- newLeafAnthocyanins (Dev.) [1]: 0
- newLeafChlorosis (Dev.) [1]: 1
- newLeafNecrosis (Dev.) [1]: 4
- pointedLeaves (Dev.) [1]: 1
- tMic (Dev.) [1]: 2
- Symptom Class [1]: 7

SMILES: CN(C)C(=O)Nc1ccc(Cl)c(Cl)c1 [Diuron]
- characteristic symptoms (phenotypic analysis) [1]: rapid and widespread leaf necrosis
- leafCurling (Dev.) [1]: 1
- leafTwisting (Dev.) [1]: 0
- leafWidth (Dev.) [1]: −2
- matureLeafAnthocyanins (Dev.) [1]: 0
- matureLeafChlorosis (Dev.) [1]: 2
- matureLeafNecrosis (Dev.) [1]: 4
- newLeafAnthocyanins (Dev.) [1]: newLeafAnthocyanins 0
- newLeafChlorosis (Dev.) [1]: 2
- newLeafNecrosis (Dev.) [1]: 4
- pointedLeaves (Dev.) [1]: 1
- tMic (Dev.) [1]: 1
- Symptom Class [1]: 7

SMILES: OC(Cn1cncn1)(Cn1cncn1)c1ccc(F)cc1F [Fiuconazole]
- Fold Change of hypoxanthine ([3]; nLC): 0.7757

SMILES: CP(=O)(O)CCC(N)C(=O)O (stereo not shown) [Glufosinate]
- Number of Metabolites Changed: (unknown #) (Arabidopsis thaliana [4]; p < 0.05): 4(4)
- Number of Metabolites Changed: Total # (Arabidopsis thaliana [4]; p < 0.05): 4(4)
- Number of Metabolites Changed: (unknown #) (Arabidopsis thaliana [4]; p < 0.11): 9(9)
- Number of Metabolites Changed: Total # (Arabidopsis thaliana [4]; p < 0.11): 9(9)
- commonly regulated (putative stress-related) metabolites (Arabidopsis thaliana [4]): Only a few, if any, stress-related metabolites were observed
- nitrogen sources M. grisea can utilize in the presence of the compound (Magnaporthe grisea): only able to utilize glutamine and glutamate as nitrogen sources
- characteristic symptoms (phenotypic analysis) [1]: Chlorosis and leaf curling
- leafCurling (Dev.) [1]: 2
- leafTwisting (Dev.) [1]: 1
- leafWidth (Dev.) [1]: −2
- matureLeafAnthocyanins (Dev.) [1]: 0
- matureLeafChlorosis (Dev.) [1]: 3
- matureLeafNecrosis (Dev.) [1]: 0
- newLeafAnthocyanins (Dev.) [1]: 0
- newLeafChlorosis (Dev.) [1]: 3
- newLeafNecrosis (Dev.) [1]: 0
- pointedLeaves (Dev.) [1]: 1
- tMic (Dev.) [1]: 1
- Symptom Class [1]: 3
- No. of Lethal Genes Altered (Arabidopsis thaliana [2]): 10

SMILES: O=C(O)CNCP(=O)(O)O [Glyphosate]
- tyrosine level (Arabidopsis thaliana [4]; MOA1 metabolite data, one hour, relative to the control): decreased relative to the control after one hour
- Tier 4: growth of M. grisea with ammonium or glutamine as nitrogen source (Magnaporthe grisea): Little growth defect
- growth of M. grisea with nitrate, nitrite, or glutamate as the sole nitrogen source (Magnaporthe grisea): inhibited growth
- comparison of growth results for Tiers 3 and 4 (Unknown 4 versus glyphosate) (Magnaporthe grisea; 250 μg/ml): nearly identical as compared to Unknown 4
- growth inhibition of M. grisea and its remediation (Magnaporthe grisea; glyphosate at 1.0 mg/ml): remediated by inclusion of aromatic amino acids
- characteristic symptoms (phenotypic analysis) [1]: anthocyanin accumulation in the older leaves accompanied by chlorosis of the newly emerging leaves
- leafCurling (Dev.) [1]: 0
- leafTwisting (Dev.) [1]: 0
- leafWidth (Dev.) [1]: 0
- matureLeafAnthocyanins (Dev.) [1]: 3
- matureLeafChlorosis (Dev.) [1]: 1
- matureLeafNecrosis (Dev.) [1]: 3
- newLeafAnthocyanins (Dev.) [1]: 1
- newLeafChlorosis (Dev.) [1]: 2
- newLeafNecrosis (Dev.) [1]: 0
- pointedLeaves (Dev.) [1]: 1
- tMic (Dev.) [1]: 2
- Symptom Class [1]: 4

SMILES: CC(C)C1(C)N=C(c2ncccc2C(=O)O)NC1=O (stereo not shown) [Imazapyr]
- commonly regulated (putative stress-related) metabolites (Arabidopsis thaliana [4]): Only a few, if any, stress-related metabolites were observed
- characteristic symptoms (phenotypic analysis) [1]: anthocyanin accumulation in the older leaves accompanied by chlorosis of the newly emerging leaves
- Symptom Class [1]: 4

SMILES: CCc1cnc(C2=NC(C)(C(C)C)C(=O)N2)c(C(=O)O)c1 (stereo not shown) [Imazethapyr]
- characteristic symptoms (phenotypic analysis) [1]: anthocyanin accumulation in the older leaves accompanied by chlorosis of the newly emerging leaves
- Symptom Class [1]: 4

SMILES: CS(=O)(=O)c1cc(C(F)(F)F)ccc1C(=O)c1cnoc1C1CC1 [Isoxaflutole]
- Alpha-tocopherol levels (Arabidopsis thaliana [4]; MOA1 metabolite data, early time points): not significantly changed relative to the control
- tyrosine and phenylalanine levels (Arabidopsis thaliana [4]; MOA1 metabolite data, relative to the control): up-regulated relative to the control; also recorded: began to accumulate relative to the control after one hour
- No. of Lethal Genes Altered (Arabidopsis thaliana [2]): 15

SMILES: CCc1cccc(C)c1N(C(=O)CCl)C(C)COC (stereo not shown) [Metolachlor]
- Symptom Class [1]: 7

SMILES: CSc1nnc(C(C)(C)C)c(=O)n1N [Metribuzin]
- characteristic symptoms (phenotypic analysis) [1]: rapid and widespread leaf necrosis
- Symptom Class [1]: 7

SMILES: O=C(O)c1ccccc1C(=O)Nc1cccc2ccccc12 [Naptalam]
- extent of gene expression perturbation compared to the other treatments (Arabidopsis thaliana [2]): fewest gene expression perturbations
- No. of Lethal Genes Altered (Arabidopsis thaliana [2]): 3

SMILES: O=[N+]([O-])O [Nitrate, nitrate]
- Nitrate Regulation of Glutamate synthetase (Arabidopsis plants): ↑
- Nitrate Regulation of Glutamine synthetase(2) (Arabidopsis plants): ↑
- Nitrate Regulation of MADs Box(2) (Arabidopsis plants): ↓
- Nitrate Regulation of MYB transcription factor (Arabidopsis plants): ↑
- Nitrate Regulation of Malate Dehydrogenase (Arabidopsis plants): ↑
- Nitrate Regulation of Nitrate transporter (Arabidopsis plants): ↑
- Nitrate Regulation of Phosphate transporter (Arabidopsis plants): ↑
- Nitrate Regulation of Transaldolase (Arabidopsis plants): ↑
- Nitrate Regulation of Transketolase (Arabidopsis plants): ↑

SMILES: CNc1cnn(-c2cccc(C(F)(F)F)c2)c(=O)c1Cl [Norfluazon, Norflurazon]
- commonly regulated (putative stress-related) metabolites (Arabidopsis thaliana [4]): Only a few, if any, stress-related metabolites were observed

SMILES: C[n+]1ccc(-c2cc[n+](C)cc2)cc1 [Paraquat]
- characteristic symptoms (phenotypic analysis) [1]: rapid and widespread leaf necrosis
- leafCurling (Dev.) [1]: 2
- leafTwisting (Dev.) [1]: 0
- leafWidth (Dev.) [1]: −1
- matureLeafAnthocyanins (Dev.) [1]: 0
- matureLeafChlorosis (Dev.) [1]: 1
- matureLeafNecrosis (Dev.) [1]: 4
- newLeafAnthocyanins (Dev.) [1]: 0
- newLeafChlorosis (Dev.) [1]: 1
- newLeafNecrosis (Dev.) [1]: 4
- pointedLeaves (Dev.) [1]: 1
- tMic (Dev.) [1]: 2
- Symptom Class [1]: 7

SMILES: CC[C@@H]([C@H](C)O)n1ncn(-c2ccc(N3CCN(c4ccc(OC[C@@H]5CO[C@@](Cn6cncn6)(c6ccc(F)cc6F)C5)cc4)CC3)cc2)c1=O [Posaconazoie]
- Fold Change luteolin ([3]; platform LC): 0

SMILES: CC[C@@H]([C@H](C)O)n1ncn(-c2ccc(N3CCN(c4ccc(OC[C@@H]5CO[C@@](Cn6cncn6)(c6ccc(F)cc6F)C5)cc4)CC3)cc2)c1=O [Posaconazote]
- Fold Change of porphobilinogen ([3]; platform nLC, p-Value 1): 0

From patent publication US20040018500A1, “Methods and systems for analyzing complex biological systems” (priority 2001, published 2004)
